Source: patent US20080102497A1, “ENZYMATIC HYDROLYSIS OF STARCH” (priority 2006, published 2008)
Where “and” joins values, the source holds several entries; their conditions need not be identical. Equal values may be shown once. Read-outs that look alike come from different tables or passages of the source.

Tests used:
[1] = molecular target: α-amylase from Aspergillus oryzae (Aspergillus oryzae, UniProt P0C1B3); assay: hydrolysis of cooked dent corn starch; type: biochemical; details: cooked dent corn starch 0.5%, pH 5.2, 37° C., 10 min
Procedure: (§1) The separate reaction mixtures were incubated at 37° C. for 10 minutes. The control reaction mixtures contained enzyme, buffer, and starch but no manganese ion. The starch hydrolysis reaction was stopped by combining the reaction mixture with a solution containing DNSA and heating for 30 min at 85° C. The absorbance of the control and test samples was measured at 562 nm to monitor the amount of reducing sugar in each sample.

[2] = molecular target: T1, industrial α-amylase known as Termamyl (Bacillus licheniformis, UniProt P06278); assay: hydrolysis of cooked dent corn starch; type: biochemical; details: cooked dent corn starch 0.5%, pH 5.2, 37° C., 10 min
T1 construct: purchased Novozymes
Procedure: as §1

[3] = molecular target: α-amylase from Bacillus licheniformis (Bacillus licheniformis, UniProt P06278); assay: hydrolysis of raw corn starch, reducing sugar by DNSA; type: biochemical; details: for Relative Activity: raw corn starch, pH 5.3, 37° C., 20 min
[4] = molecular target: T2, α-amylase from porcine pancreas (Sus scrofa, UniProt P00690); assay: hydrolysis of cooked dent corn starch; type: biochemical; details: cooked dent corn starch 0.5%, pH 5.2, 37° C., 10 min
T2 construct: the α-amylase from porcine pancreas; from tissue; host or cells: porcine pancreas
T2 sequence (P00690 16-511): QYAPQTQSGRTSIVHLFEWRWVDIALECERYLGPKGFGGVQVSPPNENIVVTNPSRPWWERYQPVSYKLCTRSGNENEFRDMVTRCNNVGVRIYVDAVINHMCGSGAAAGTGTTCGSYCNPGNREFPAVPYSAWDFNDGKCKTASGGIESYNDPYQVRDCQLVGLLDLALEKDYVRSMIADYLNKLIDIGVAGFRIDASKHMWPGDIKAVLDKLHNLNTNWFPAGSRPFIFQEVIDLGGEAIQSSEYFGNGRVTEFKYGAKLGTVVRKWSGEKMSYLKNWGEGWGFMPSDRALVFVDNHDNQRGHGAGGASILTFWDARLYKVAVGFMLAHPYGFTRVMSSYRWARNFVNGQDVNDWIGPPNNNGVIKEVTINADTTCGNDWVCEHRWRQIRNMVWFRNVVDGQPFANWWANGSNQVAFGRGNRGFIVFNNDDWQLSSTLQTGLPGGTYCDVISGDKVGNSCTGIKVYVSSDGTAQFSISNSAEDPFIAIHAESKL
Procedure: as §1

[5] = test system: enzyme mixture of purified glucoamylase from mushroom and purified α-amylase from barley; assay: hydrolysis of raw corn starch by enzyme mixture, reducing sugar by DNSA; type: biochemical; details: summary of Table 2
Procedure: Enzyme mixture was also pre-incubated with 10 mM Fe^++, Cu^++, Ca^++, Mg^++, or disodium ethylenediamine-tetraacetic acid (EDTA). Thereafter, 40 μl of each pre-incubation solution was added to 15 mg raw corn starch, and the reaction mixture incubated at 37° C. for 20 minutes. The control reaction mixture contained substrate, enzyme, and buffer but no additional metal ions. The starch hydrolysis reaction was stopped by combining the reaction mixture with a solution containing 3,5 dinitrosalicylic acid (DNSA) and heating for 30 min at 85° C. The absorbance of the control and test samples was measured at 562 nm to monitor the amount of reducing sugar in each sample.

[6] = molecular target: α-amylase from Bacillus amyloliquefaciens (Bacillus amyloliquefaciens, UniProt P00692); assay: hydrolysis of raw corn starch, reducing sugar by DNSA; type: biochemical; details: for Relative Activity: raw corn starch, pH 5.3, 37° C., 20 min
[7] = molecular target: T3, glucoamylase from Aspergillus Niger (Aspergillus niger, UniProt P69328); details: pH 5.2, 37° C., 10 min
Procedure: The control reaction mixture contained enzyme, buffer, and starch but no manganese ion. The starch hydrolysis reaction was stopped by combining the reaction mixture with a solution containing DNSA and heating for 30 min at 85° C. The absorbance of the control and test samples was measured at 562 nm to monitor the amount of reducing sugar in each sample.

[8] = test system: glucoamylase from Rhizopus sp.; assay: effect of pre-incubation of Mn^++ with enzyme or starch on raw corn starch conversion; type: biochemical; details: for % conversion of the starch substrate: reaction 37° C., pH 5.3
Procedure: The glucoamylase from Rhizopus sp. Or raw corn starch substrate were pre-incubated in a sodium acetate buffer, pH 5.3, with 1.0 mM Mn^++ for 0, 20, 40, or 60 min at 22° C. The enzyme pre-incubation solutions were then combined with 15 mg raw corn starch to provide a reaction mixture that was incubated at 37° C. for 5 minutes. The starch pre-incubation solutions were combined with an enzyme solution containing the glucoamylase from Rhizopus sp and buffer to provide a reaction mixture that was incubated at 37° C. for 5 minutes or 10 minutes.

[9] = molecular target: T3, glucoamylase from Aspergillus Niger; details: for Relative Activity: raw corn starch, pH 5.3, 37° C., 20 min
Procedure: Thereafter, 40 μl of each pre-incubation solution was added to 15 mg raw corn starch, and the reaction mixture incubated at 37° C. for 20 minutes. The control reaction mixture contained substrate, enzyme, and buffer but no manganese ion. The starch hydrolysis reaction was stopped by combining the reaction mixture with a solution containing DNSA and heating for 30 min at 85° C. The absorbance of the control and test samples was measured at 562 nm to monitor the amount of reducing sugar in each sample.

[10] = test system: α-amylase from Bacillus subtilis; assay: hydrolysis of cooked dent corn starch; type: biochemical; details: 0.01 mM Mn^++; cooked dent corn starch 0.5%; pH 5.2; 37° C., 10 min
Procedure: as §1

α-amylase from Bacillus licheniformis, sequence (P06278 30-512): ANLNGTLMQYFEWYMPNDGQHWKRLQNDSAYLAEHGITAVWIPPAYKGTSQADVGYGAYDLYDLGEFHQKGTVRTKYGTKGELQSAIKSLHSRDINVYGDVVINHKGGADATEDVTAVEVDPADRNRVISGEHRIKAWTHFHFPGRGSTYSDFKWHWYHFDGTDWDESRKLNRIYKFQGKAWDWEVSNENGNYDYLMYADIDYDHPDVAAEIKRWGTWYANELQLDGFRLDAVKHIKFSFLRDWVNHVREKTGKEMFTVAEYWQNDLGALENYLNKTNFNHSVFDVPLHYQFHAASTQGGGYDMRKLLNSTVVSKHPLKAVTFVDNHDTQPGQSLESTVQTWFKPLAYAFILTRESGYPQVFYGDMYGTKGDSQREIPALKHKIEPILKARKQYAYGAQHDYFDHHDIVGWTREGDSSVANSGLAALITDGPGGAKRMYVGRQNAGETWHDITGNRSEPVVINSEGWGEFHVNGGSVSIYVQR
T3 sequence (P69328 25-640): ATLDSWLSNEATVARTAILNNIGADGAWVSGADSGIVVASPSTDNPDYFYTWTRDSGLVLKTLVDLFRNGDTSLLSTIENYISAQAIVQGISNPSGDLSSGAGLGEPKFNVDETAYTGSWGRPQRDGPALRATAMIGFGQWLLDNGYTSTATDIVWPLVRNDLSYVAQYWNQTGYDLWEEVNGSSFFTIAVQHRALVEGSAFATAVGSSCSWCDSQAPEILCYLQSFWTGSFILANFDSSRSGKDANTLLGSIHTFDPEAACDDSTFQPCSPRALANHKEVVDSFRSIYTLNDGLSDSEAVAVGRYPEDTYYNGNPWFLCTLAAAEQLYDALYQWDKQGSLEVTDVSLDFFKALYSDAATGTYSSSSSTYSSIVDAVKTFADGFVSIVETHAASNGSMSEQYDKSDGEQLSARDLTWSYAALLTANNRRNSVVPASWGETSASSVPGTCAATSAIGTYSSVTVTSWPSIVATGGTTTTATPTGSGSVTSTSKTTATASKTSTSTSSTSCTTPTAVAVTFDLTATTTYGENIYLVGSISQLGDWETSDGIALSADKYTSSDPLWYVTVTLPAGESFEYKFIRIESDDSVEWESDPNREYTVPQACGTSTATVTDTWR
α-amylase from Bacillus amyloliquefaciens, sequence (P00692 32-514): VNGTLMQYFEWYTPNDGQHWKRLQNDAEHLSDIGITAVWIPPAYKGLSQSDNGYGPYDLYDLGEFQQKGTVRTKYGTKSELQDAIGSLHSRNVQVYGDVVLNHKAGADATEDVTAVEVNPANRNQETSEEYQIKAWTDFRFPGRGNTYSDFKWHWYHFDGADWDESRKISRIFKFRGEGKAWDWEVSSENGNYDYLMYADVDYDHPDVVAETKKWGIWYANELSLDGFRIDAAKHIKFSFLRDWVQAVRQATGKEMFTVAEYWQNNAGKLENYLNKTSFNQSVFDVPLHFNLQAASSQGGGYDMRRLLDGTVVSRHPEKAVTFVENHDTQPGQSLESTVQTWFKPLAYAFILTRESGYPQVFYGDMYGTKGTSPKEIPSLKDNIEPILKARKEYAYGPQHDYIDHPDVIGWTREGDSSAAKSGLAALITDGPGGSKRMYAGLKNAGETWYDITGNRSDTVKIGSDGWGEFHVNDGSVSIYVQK
T1 sequence (P06278 30-512): as the sequence (P06278 30-512) above

[Mn+2] [Mn^++, manganese ions] was tested, and the “Relative Activity” value ([1]; 0.01 mM Mn^++) was 126.9%, the “Relative Activity” value ([1]; 0.1 mM Mn^++) was 131.2% and the “Relative Activity” value ([1]; 1 mM Mn^++) was 135.2%. For the same compound, the “Relative Activity” value ([2]; 0.01 mM Mn^++) was 114.7%, the “Relative Activity” value ([2]; 10 mM Mn^++) was 156.3% and the “Relative Activity” value ([3]; 0.01 mM Mn^++) was 93.4%. For the same compound, the “Relative Activity” value ([3]; 0.1 mM Mn^++) was 104.6%, the “Relative Activity” value ([3]; 1 mM Mn^++) was 113.8% and the “effect on hydrolysis of raw corn starch (in words)” value (from here on “effect on hydrolysis”) ([3]; summary of Table 4) was “enhances the hydrolysis of raw corn starch”. For the same compound, the “Relative Activity” value ([4]; 0.01 mM Mn^++) was 114.5%, the “Relative Activity” value ([4]; 0.1 mM Mn^++) was 132.4% and the “Relative Activity” value ([4]; 1 mM Mn^++) was 144.2%. For the same compound, the “Relative Activity” value ([4]; 10 mM Mn^++) was 177.7%, the “effect on hydrolysis” value [5] was “enhances the hydrolysis of raw corn starch” and the “Relative Activity” value ([6]; 0.01 mM Mn^++) was 101.5%. For the same compound, the “Relative Activity” value ([6]; 0.1 mM Mn^++) was 115.7%, the “Relative Activity” value ([6]; 1 mM Mn^++) was 119.1% and the “Relative Activity” value ([6]; 10 mM Mn^++) was 111.7%. For the same compound, the “effect on hydrolysis” value ([6]; summary of Table 4) was “enhances the hydrolysis of raw corn starch”, the “Relative Activity” value ([7]; 0.01 mM Mn^++, cooked barley starch 0.5%) was 111.1% and the “Relative Activity” value ([7]; 0.01 mM Mn^++, cooked pea starch 0.5%) was 121.1%. The “Relative Activity” value ([7]; 0.01 mM Mn^++, cooked potato starch 0.5%) was 112.0%, the “Relative Activity” value ([7]; 0.01 mM Mn^++, cooked rice starch 0.5%) was 109.3% and the “Relative Activity” value ([7]; 0.01 mM Mn^++, cooked soluble potato starch 0.5%) was 104.0% and 115.7%. The “Relative Activity” value ([7]; 0.01 mM Mn^++, cooked tapioca starch 0.5%) was 109.5%, the “Relative Activity” value ([7]; 0.01 mM Mn^++, cooked wheat starch 0.5%) was 111.9% and the “Relative Activity” value ([7]; 0.1 mM Mn^++, cooked barley starch 0.5%) was 117.5%. The “Relative Activity” value ([7]; 0.1 mM Mn^++, cooked pea starch 0.5%) was 124.0%, the “Relative Activity” value ([7]; 0.1 mM Mn^++, cooked potato starch 0.5%) was 118.8% and the “Relative Activity” value ([7]; 0.1 mM Mn^++, cooked rice starch 0.5%) was 129.3%. For the same compound, the “Relative Activity” value ([7]; 0.1 mM Mn^++, cooked soluble potato starch 0.5%) was 121.0% and 130.1%, the “Relative Activity” value ([7]; 0.1 mM Mn^++, cooked tapioca starch 0.5%) was 126.0% and the “Relative Activity” value ([7]; 0.1 mM Mn^++, cooked wheat starch 0.5%) was 122.2%. For the same compound, the “Relative Activity” value ([7]; 1 mM Mn^++, cooked barley starch 0.5%) was 120.4%, the “Relative Activity” value ([7]; 1 mM Mn^++, cooked pea starch 0.5%) was 138.0% and the “Relative Activity” value ([7]; 1 mM Mn^++, cooked potato starch 0.5%) was 138.5%. For the same compound, the “Relative Activity” value ([7]; 1 mM Mn^++, cooked rice starch 0.5%) was 144.0%, the “Relative Activity” value ([7]; 1 mM Mn^++, cooked soluble potato starch 0.5%) was 140.0% and 79.9% and the “Relative Activity” value ([7]; 1 mM Mn^++, cooked tapioca starch 0.5%) was 135.7%. The “Relative Activity” value ([7]; 1 mM Mn^++, cooked wheat starch 0.5%) was 142.5%, the “Relative Activity” value ([7]; 10 mM Mn^++, cooked barley starch 0.5%) was 172.6% and the “Relative Activity” value ([7]; 10 mM Mn^++, cooked pea starch 0.5%) was 179.8%. For the same compound, the “Relative Activity” value ([7]; 10 mM Mn^++, cooked potato starch 0.5%) was 200.0%, the “Relative Activity” value ([7]; 10 mM Mn^++, cooked rice starch 0.5%) was 209.2% and the “Relative Activity” value ([7]; 10 mM Mn^++, cooked tapioca starch 0.5%) was 183.8%. The “Relative Activity” value ([7]; 10 mM Mn^++, cooked wheat starch 0.5%) was 185.4%, the “% conversion of the starch substrate” value ([8]; 1.0 mM Mn^++ pre-incubated with glucoamylase 0 min at 22° C., 5 min, raw corn starch) was 0.42% and the “% conversion of the starch substrate” value ([8]; 1.0 mM Mn^++ pre-incubated with glucoamylase 20 min at 22° C., 5 min, raw corn starch) was 0.35%. The “% conversion of the starch substrate” value ([8]; 1.0 mM Mn^++ pre-incubated with glucoamylase 40 min at 22° C., 5 min, raw corn starch) was 0.38%, the “% conversion of the starch substrate” value ([8]; 1.0 mM Mn^++ pre-incubated with glucoamylase 60 min at 22° C., 5 min, raw corn starch) was 0.38% and the “% conversion of the starch substrate” value ([8]; 1.0 mM Mn^++ pre-incubated with raw corn starch 0 min at 22° C., 5 min) was 0.51%. The “% conversion of the starch substrate” value ([8]; 1.0 mM Mn^++ pre-incubated with raw corn starch 0 min at 22° C., 10 min) was 0.73%, the “% conversion of the starch substrate” value ([8]; 1.0 mM Mn^++ pre-incubated with raw corn starch 20 min at 22° C., 5 min) was 0.48% and the “% conversion of the starch substrate” value ([8]; 1.0 mM Mn^++ pre-incubated with raw corn starch 20 min at 22° C., 10 min) was 0.79%. The “% conversion of the starch substrate” value ([8]; 1.0 mM Mn^++ pre-incubated with raw corn starch 40 min at 22° C., 5 min) was 0.50%, the “% conversion of the starch substrate” value ([8]; 1.0 mM Mn^++ pre-incubated with raw corn starch 40 min at 22° C., 10 min) was 0.81% and the “% conversion of the starch substrate” value ([8]; 1.0 mM Mn^++ pre-incubated with raw corn starch 60 min at 22° C., 5 min) was 0.58%. The “% conversion of the starch substrate” value ([8]; 1.0 mM Mn^++ pre-incubated with raw corn starch 60 min at 22° C., 10 min) was 0.80%, the “effect of pre-incubation on activation by Mn^++ (in words)” value ([8]; pre-incubation of Mn^++ with enzyme or with starch, 0-60 min) was “does not significantly influence the activation effect” and the “Relative Activity” value ([9]; 0.01 mM Mn^++) was 94.4%. The “Relative Activity” value ([9]; 0.1 mM Mn^++) was 111.2%, the “Relative Activity” value ([9]; 1 mM Mn^++) was 127.1% and the “Relative Activity” value ([9]; 10 mM Mn^++) was 160.6%. The “effect on hydrolysis” value ([9]; summary of Table 4) was “enhances the hydrolysis of raw corn starch” and the “Relative Activity” value [10] was 113.0% and 119.5%.
